{"source": "patent US11530221B2", "about": "“Pyrimido[4,5-d]pyrimidin-2-one derivatives as protein kinase inhibitors” (KOREA INSTITUTE OF SCIENCE AND TECHNOLOGY, priority 2019, dated 2022)", "assay_type_in_all_cases": "biochemical", "key": {"[1]": {"target": "T1, c-Src (Homo sapiens, UniProt P12931)", "T1 sequence (P12931 whole entry)": "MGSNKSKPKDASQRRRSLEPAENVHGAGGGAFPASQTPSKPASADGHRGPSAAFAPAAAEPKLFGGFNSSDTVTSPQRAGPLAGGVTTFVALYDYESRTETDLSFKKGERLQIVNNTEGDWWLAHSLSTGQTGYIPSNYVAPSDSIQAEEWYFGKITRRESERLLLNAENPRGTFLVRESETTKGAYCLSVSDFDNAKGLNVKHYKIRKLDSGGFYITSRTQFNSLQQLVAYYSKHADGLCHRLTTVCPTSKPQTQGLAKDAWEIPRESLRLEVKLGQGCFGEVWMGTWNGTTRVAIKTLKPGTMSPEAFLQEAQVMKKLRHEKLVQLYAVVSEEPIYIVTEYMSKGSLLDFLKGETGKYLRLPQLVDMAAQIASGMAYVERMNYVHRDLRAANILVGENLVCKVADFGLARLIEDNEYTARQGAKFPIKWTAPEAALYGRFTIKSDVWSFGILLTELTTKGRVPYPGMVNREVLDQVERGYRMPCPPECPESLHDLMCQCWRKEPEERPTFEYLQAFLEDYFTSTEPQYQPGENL", "assay": "IC50 inhibitory activity against c-Src kinase", "method": "(§1) IC50 values were calculated by measuring the inhibitory activity against LCK, c-Src, p38a/MAPK14, ABL1, DDR1 and FGR kinases of the compounds of the present invention."}, "[2]": {"target": "T2, LCK (Homo sapiens, UniProt P06239)", "T2 sequence (P06239 whole entry)": "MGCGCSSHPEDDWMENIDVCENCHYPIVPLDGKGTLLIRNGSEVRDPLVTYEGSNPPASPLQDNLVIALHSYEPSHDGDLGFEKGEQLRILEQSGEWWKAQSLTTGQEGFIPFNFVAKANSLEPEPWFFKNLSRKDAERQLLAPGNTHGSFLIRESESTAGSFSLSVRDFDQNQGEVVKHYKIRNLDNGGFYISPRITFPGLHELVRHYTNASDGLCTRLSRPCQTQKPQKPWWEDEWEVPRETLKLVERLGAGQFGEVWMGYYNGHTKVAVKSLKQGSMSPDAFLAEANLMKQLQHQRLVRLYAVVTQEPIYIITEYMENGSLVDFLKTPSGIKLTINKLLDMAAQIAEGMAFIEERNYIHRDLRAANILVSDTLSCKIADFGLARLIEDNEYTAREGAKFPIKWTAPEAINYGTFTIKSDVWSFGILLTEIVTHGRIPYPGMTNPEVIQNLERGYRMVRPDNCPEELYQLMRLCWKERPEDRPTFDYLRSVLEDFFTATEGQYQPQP", "assay": "Full kinase panel, single concentration: LCK", "conditions": "read-out: residual enzyme activity (%) LCK", "method": "(§2) In order to measure the inhibitory activity (% inhibitory capacity) against protein kinases of the compounds of the present invention, biochemical assays were performed using a full kinase panel.\n(§3) The experimental compounds used herein were the compounds of Compound Nos. 1 and 33. The residual enzyme activity (%) was calculated by measuring the inhibitory activity against kinases upon treatment with the experimental compound at a single concentration of 1 μM. Kinases having calculated residual enzyme activity (%) of 30% or less (that is, inhibition of 70% or more) are shown below."}, "[3]": {"target": "CSK (Homo sapiens, UniProt P41240)", "assay": "Full kinase panel, single concentration: CSK", "conditions": "read-out: residual enzyme activity (%) CSK", "method": "as §2, §3"}, "[4]": {"target": "T3, LYN (Homo sapiens, UniProt P07948)", "T3 sequence (P07948 whole entry)": "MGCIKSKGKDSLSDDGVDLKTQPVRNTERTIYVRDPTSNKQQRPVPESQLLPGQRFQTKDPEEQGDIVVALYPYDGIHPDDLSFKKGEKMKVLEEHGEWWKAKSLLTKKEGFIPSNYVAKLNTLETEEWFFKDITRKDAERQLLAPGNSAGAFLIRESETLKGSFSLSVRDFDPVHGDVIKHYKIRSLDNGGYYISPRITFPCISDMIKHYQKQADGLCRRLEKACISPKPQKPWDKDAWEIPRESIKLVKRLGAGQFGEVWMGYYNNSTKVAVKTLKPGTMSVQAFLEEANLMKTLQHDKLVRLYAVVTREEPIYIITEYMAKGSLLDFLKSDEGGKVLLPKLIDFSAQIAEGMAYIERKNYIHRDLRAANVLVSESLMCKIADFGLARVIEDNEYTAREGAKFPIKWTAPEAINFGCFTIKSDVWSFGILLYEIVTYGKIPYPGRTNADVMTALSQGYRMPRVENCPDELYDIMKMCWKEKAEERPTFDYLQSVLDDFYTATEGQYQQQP", "assay": "Full kinase panel, single concentration: LYN", "conditions": "read-out: residual enzyme activity (%) LYN", "method": "as §2, §3"}, "[5]": {"target": "ABL1 (Homo sapiens, UniProt P00519)", "assay": "IC50 inhibitory activity against ABL1 kinase", "method": "as §1"}, "[6]": {"target": "RAF1 (Homo sapiens, UniProt P04049)", "sequence (P04049 whole entry)": "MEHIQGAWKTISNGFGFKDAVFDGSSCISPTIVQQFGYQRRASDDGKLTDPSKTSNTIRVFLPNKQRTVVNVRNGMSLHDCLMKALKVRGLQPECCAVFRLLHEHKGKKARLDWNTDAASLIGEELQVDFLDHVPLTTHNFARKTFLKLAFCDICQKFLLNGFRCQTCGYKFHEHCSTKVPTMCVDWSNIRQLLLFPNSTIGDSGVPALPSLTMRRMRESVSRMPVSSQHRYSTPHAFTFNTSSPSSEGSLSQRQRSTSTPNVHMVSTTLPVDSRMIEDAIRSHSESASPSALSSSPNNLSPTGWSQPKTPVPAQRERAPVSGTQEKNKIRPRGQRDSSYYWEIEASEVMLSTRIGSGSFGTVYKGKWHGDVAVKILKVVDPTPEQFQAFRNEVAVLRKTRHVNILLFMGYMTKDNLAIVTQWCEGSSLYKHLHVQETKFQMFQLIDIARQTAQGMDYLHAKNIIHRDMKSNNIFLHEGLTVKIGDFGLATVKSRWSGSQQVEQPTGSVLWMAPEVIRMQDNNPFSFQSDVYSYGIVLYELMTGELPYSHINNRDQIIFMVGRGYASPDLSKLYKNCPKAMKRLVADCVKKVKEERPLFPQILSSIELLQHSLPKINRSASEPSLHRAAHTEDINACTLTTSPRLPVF", "assay": "Full kinase panel, single concentration: RAF1", "conditions": "read-out: residual enzyme activity (%) RAF1", "method": "as §2, §3"}, "[7]": {"target": "T4, DDR1 (Homo sapiens, UniProt Q08345)", "T4 sequence (Q08345 19-913)": "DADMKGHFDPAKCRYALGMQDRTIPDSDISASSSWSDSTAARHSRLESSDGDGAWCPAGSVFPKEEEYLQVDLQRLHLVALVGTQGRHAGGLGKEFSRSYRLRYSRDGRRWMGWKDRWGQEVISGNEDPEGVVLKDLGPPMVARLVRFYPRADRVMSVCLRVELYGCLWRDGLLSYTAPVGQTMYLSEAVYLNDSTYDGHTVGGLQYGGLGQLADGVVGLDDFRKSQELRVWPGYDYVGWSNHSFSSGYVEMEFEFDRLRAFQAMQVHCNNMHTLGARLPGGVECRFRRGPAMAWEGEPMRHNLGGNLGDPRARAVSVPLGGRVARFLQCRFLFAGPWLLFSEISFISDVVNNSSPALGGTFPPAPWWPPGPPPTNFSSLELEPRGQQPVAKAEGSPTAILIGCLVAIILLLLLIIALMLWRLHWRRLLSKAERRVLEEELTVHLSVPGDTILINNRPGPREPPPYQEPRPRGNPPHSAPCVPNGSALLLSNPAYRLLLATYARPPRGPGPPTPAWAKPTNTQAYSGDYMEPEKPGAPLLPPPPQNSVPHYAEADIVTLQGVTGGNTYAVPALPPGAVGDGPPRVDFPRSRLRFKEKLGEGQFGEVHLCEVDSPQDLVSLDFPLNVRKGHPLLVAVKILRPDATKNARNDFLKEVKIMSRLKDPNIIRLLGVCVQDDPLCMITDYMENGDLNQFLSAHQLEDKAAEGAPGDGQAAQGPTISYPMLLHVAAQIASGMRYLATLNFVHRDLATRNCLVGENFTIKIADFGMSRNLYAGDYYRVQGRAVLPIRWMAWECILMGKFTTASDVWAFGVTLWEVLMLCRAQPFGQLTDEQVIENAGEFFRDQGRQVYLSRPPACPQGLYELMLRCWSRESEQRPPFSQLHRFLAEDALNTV", "assay": "Full kinase panel, single concentration: DDR1", "conditions": "read-out: residual enzyme activity (%) DDR1", "method": "as §2, §3"}, "[8]": {"target": "T5, FGR (Homo sapiens, UniProt P09769)", "T5 sequence (P09769 whole entry)": "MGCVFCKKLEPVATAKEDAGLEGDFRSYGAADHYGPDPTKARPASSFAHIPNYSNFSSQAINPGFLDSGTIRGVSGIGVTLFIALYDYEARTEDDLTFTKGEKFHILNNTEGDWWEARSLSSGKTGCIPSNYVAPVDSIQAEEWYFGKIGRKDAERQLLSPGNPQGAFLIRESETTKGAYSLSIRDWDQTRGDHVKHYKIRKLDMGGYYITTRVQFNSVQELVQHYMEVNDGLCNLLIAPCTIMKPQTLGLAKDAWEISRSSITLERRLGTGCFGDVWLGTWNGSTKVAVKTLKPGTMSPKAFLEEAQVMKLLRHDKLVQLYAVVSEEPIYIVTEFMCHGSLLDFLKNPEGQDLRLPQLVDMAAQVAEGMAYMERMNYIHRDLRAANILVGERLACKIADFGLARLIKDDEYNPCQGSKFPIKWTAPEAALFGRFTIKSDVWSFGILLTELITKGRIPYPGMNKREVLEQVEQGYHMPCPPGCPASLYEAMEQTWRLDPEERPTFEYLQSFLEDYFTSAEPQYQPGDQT", "assay": "IC50 inhibitory activity against FGR kinase", "method": "as §1"}, "[9]": {"target": "T4, DDR1", "assay": "IC50 inhibitory activity against DDR1 kinase", "method": "as §1"}, "[10]": {"target": "T6, DDR2 (Homo sapiens, UniProt Q16832)", "T6 sequence (Q16832 22-855)": "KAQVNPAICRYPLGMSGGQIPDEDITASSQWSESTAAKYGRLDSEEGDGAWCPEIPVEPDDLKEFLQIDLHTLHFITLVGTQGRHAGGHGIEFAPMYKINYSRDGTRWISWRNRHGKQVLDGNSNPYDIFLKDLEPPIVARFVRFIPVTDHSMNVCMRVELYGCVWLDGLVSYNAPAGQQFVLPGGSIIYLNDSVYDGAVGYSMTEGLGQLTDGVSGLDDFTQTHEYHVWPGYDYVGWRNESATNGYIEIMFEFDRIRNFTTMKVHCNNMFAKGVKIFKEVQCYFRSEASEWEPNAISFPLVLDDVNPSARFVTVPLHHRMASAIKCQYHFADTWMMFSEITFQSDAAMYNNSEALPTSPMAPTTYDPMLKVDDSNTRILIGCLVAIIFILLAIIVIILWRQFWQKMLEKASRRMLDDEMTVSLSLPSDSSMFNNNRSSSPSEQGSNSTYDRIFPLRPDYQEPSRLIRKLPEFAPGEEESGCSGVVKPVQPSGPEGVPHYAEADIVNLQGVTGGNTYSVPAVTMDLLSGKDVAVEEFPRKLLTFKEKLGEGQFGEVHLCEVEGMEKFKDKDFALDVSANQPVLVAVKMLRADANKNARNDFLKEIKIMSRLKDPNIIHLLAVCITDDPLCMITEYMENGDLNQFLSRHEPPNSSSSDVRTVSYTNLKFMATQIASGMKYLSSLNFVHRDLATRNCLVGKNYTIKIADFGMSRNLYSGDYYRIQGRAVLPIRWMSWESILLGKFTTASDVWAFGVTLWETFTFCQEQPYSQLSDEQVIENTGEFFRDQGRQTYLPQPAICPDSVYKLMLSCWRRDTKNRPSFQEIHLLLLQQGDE", "assay": "Full kinase panel, single concentration: DDR2", "conditions": "read-out: residual enzyme activity (%) DDR2", "method": "as §2, §3"}, "[11]": {"target": "BLK (Homo sapiens, UniProt P51451)", "sequence (P51451 whole entry)": "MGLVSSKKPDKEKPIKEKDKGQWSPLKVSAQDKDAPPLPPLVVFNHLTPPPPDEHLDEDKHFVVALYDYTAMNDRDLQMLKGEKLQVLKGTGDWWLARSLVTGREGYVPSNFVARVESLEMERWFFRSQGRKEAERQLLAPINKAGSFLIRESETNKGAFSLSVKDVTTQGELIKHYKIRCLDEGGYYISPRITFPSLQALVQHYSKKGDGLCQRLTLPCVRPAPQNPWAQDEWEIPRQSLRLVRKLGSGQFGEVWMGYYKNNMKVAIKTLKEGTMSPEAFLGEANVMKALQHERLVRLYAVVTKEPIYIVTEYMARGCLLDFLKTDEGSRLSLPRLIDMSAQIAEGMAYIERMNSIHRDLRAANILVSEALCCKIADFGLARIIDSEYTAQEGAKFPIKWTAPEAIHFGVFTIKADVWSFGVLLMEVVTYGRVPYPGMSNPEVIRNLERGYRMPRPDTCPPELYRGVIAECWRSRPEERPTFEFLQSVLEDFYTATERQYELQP", "assay": "Full kinase panel, single concentration: BLK", "conditions": "read-out: residual enzyme activity (%) BLK", "method": "as §2, §3"}, "[12]": {"target": "p38a/MAPK14 (Homo sapiens, UniProt Q16539)", "sequence (Q16539 whole entry)": "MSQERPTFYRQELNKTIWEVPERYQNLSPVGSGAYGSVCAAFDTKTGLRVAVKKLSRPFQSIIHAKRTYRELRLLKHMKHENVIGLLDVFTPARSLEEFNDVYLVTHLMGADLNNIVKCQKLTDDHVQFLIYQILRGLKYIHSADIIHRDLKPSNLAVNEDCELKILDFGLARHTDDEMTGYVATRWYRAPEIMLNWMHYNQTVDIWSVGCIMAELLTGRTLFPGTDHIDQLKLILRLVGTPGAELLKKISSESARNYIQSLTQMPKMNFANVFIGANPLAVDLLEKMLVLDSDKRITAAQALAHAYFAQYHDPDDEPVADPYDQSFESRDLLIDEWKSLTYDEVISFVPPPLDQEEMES", "assay": "IC50 inhibitory activity against p38a/MAPK14 kinase", "method": "as §1"}, "[13]": {"target": "T1, c-Src", "assay": "Full kinase panel, single concentration: c-Src", "conditions": "read-out: residual enzyme activity (%) c-Src", "method": "as §2, §3"}, "[14]": {"target": "T2, LCK", "assay": "IC50 inhibitory activity against LCK kinase", "method": "as §1"}, "[15]": {"target": "T7, BMX (Homo sapiens, UniProt P51813)", "T7 sequence (P51813 1-675)": "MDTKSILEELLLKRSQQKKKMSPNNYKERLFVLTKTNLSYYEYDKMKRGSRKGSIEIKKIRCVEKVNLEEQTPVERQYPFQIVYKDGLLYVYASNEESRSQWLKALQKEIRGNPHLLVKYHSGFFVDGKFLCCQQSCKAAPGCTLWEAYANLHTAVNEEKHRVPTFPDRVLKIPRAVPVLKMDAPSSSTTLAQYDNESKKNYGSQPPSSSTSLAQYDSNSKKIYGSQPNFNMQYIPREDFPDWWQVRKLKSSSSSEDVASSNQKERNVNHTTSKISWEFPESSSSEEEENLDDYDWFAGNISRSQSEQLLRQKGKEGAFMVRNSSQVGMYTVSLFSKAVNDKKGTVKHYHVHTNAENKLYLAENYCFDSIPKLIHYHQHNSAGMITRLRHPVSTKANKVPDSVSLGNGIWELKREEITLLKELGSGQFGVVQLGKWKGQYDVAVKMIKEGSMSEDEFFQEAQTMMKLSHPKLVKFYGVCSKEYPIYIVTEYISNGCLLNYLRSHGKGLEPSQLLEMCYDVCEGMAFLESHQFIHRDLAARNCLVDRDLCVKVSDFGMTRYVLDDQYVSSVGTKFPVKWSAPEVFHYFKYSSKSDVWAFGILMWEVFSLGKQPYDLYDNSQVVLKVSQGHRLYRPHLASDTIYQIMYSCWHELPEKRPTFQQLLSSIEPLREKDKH", "assay": "Full kinase panel, single concentration: BMX", "conditions": "read-out: residual enzyme activity (%) BMX", "method": "as §2, §3"}, "[16]": {"target": "T5, FGR", "assay": "Full kinase panel, single concentration: FGR", "conditions": "read-out: residual enzyme activity (%) FGR", "method": "as §2, §3"}, "[17]": {"target": "ABL2 (Homo sapiens, UniProt P42684)", "assay": "Full kinase panel, single concentration: ABL2", "conditions": "read-out: residual enzyme activity (%) ABL2", "method": "as §2, §3"}, "[18]": {"target": "HCK (Homo sapiens, UniProt P08631)", "sequence (P08631 whole entry)": "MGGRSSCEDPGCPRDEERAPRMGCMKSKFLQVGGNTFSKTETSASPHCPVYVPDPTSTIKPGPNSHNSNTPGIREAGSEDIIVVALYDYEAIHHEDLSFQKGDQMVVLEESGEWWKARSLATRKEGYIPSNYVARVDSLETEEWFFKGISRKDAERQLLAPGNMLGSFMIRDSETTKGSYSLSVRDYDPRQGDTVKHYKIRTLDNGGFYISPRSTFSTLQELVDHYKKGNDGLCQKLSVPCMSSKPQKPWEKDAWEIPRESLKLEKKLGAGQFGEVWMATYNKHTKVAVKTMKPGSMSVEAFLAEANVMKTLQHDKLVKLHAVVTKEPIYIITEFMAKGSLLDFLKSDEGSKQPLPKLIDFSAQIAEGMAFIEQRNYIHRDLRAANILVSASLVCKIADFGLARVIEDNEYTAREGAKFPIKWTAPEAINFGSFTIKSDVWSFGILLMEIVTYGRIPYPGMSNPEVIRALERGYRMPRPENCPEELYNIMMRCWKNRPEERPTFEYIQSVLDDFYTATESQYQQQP", "assay": "Full kinase panel, single concentration: HCK", "conditions": "read-out: residual enzyme activity (%) HCK", "method": "as §2, §3"}, "[19]": {"target": "ABL1 (T315I) (Homo sapiens, UniProt P00519, T315I)", "assay": "IC50 inhibitory activity against ABL1 (T315I) kinase", "method": "as §1"}, "[20]": {"target": "T3, LYN", "assay": "IC50 inhibitory activity against LYN kinase"}}, "note": "Read-outs that look alike come from different tables or passages of the source. Square brackets hold non-standard residues; d marks the D form. Peptide text beside a SMILES is read from it. * marks the point of attachment. X1 = Cc1ccc(Nc2ncc3c(n2)N(C)C(=O)N(c2cc(C(=O)*)ccc2C)C3)cn1; Aib = CC(C)(N)C(=O)O", "data": [{"smiles": "Cc1ccc(Nc2ncc3c(n2)N(C)C(=O)N(c2cc(C(=O)N[C@H](C(=O)N4CCC[C@H]4C(=O)NC(C)(C)C(=O)N[C@@H](CC(C)C)C(=O)N(C)C)C(C)C)ccc2C)C3)cn1", "note": "[Example 1, (S)—N-(1-(((S)-1-(dimethylamino)-4-methyl-1-oxopentan-2-yl)amino)-2-methyl-1-oxopropan-2-yl)-1-((4-methyl-3-(1-methyl-7-((6-methylpyridin-3-yl)amino)-2-oxo-1,4-dihydropyrimido[4,5-d]pyrimidin-3(2H)-yl)benzoyl)-L-valyl)pyrrolidine-2-carboxamide] (X1-VP[Aib]L-NMe2)", "values": [{"measurement": "IC50", "setting": "[1]", "value": "> 600", "unit": "nM"}, {"measurement": "remaining activity at 1 µM", "setting": "[2]", "value": "≤ 30", "unit": "%"}, {"measurement": "remaining activity at 1 µM", "setting": "[3]", "value": "≤ 30", "unit": "%"}, {"measurement": "remaining activity at 1 µM", "setting": "[4]", "value": "≤ 30", "unit": "%"}, {"measurement": "IC50", "setting": "[5]", "value": "200 to 400", "unit": "nM"}, {"measurement": "remaining activity at 1 µM", "setting": "[6]", "value": "≤ 30", "unit": "%"}, {"measurement": "remaining activity at 1 µM", "setting": "[7]", "value": "≤ 30", "unit": "%"}, {"measurement": "IC50", "setting": "[8]", "value": "1 to 200", "unit": "nM"}, {"measurement": "IC50", "setting": "[9]", "value": "1 to 200", "unit": "nM"}, {"measurement": "remaining activity at 1 µM", "setting": "[10]", "value": "≤ 30", "unit": "%"}, {"measurement": "remaining activity at 1 µM", "setting": "[11]", "value": "≤ 30", "unit": "%"}, {"measurement": "IC50", "setting": "[12]", "value": "> 600", "unit": "nM"}, {"measurement": "remaining activity at 1 µM", "setting": "[13]", "value": "≤ 30", "unit": "%"}, {"measurement": "IC50", "setting": "[14]", "value": "1 to 200", "unit": "nM"}, {"measurement": "remaining activity at 1 µM", "setting": "[15]", "value": "≤ 30", "unit": "%"}, {"measurement": "remaining activity at 1 µM", "setting": "[16]", "value": "≤ 30", "unit": "%"}, {"measurement": "remaining activity at 1 µM", "setting": "[17]", "value": "≤ 30", "unit": "%"}, {"measurement": "remaining activity at 1 µM", "setting": "[18]", "value": "≤ 30", "unit": "%"}, {"measurement": "IC50", "setting": "[19]", "value": "> 600", "unit": "nM"}]}, {"smiles": "Cc1ccc(Nc2ncc3c(n2)N(C)C(=O)N(c2cc(NC(=O)c4ccc5c(c4)N(Cc4ccccc4)C(=O)[C@H](CC(C)C)N=C5c4ccccc4)ccc2C)C3)cn1", "note": "[Example 33, (S)-1-benzyl-3-isobutyl-N-(4-methyl-3-(1-methyl-7-((6-methylpyridin-3-yl)amino)-2-oxo-1,4-dihydropyrimido[4,5-d]pyrimidin-3(2H)-yl)phenyl)-2-oxo-5-phenyl-2,3-dihydro-1H-benzo[e][1,4]diazepine-8-carboxamide]", "values": [{"measurement": "IC50", "setting": "[1]; read-out: c-Src IC50", "value": "400 to 600", "unit": "nM"}, {"measurement": "remaining activity at 1 µM", "setting": "[2]; single concentration of 1 μM", "value": "≤ 30", "unit": "%"}, {"measurement": "remaining activity at 1 µM", "setting": "[3]; single concentration of 1 μM", "value": "≤ 30", "unit": "%"}, {"measurement": "IC50", "setting": "[20]", "value": "1 to 200", "unit": "nM"}, {"measurement": "remaining activity at 1 µM", "setting": "[4]; single concentration of 1 μM", "value": "≤ 30", "unit": "%"}, {"measurement": "IC50", "setting": "[5]; read-out: ABL1 IC50", "value": "400 to 600", "unit": "nM"}, {"measurement": "remaining activity at 1 µM", "setting": "[6]; single concentration of 1 μM", "value": "≤ 30", "unit": "%"}, {"measurement": "remaining activity at 1 µM", "setting": "[7]; single concentration of 1 μM", "value": "≤ 30", "unit": "%"}, {"measurement": "IC50", "setting": "[8]; read-out: FGR IC50", "value": "1 to 200", "unit": "nM"}, {"measurement": "IC50", "setting": "[9]; read-out: DDR1 IC50", "value": "1 to 200", "unit": "nM"}, {"measurement": "remaining activity at 1 µM", "setting": "[10]; single concentration of 1 μM", "value": "≤ 30", "unit": "%"}, {"measurement": "remaining activity at 1 µM", "setting": "[11]; single concentration of 1 μM", "value": "≤ 30", "unit": "%"}, {"measurement": "IC50", "setting": "[12]; read-out: p38a/MAPK14 IC50", "value": "> 600", "unit": "nM"}, {"measurement": "remaining activity at 1 µM", "setting": "[13]; single concentration of 1 μM", "value": "≤ 30", "unit": "%"}, {"measurement": "IC50", "setting": "[14]; read-out: LCK IC50", "value": "1 to 200", "unit": "nM"}, {"measurement": "remaining activity at 1 µM", "setting": "[15]; single concentration of 1 μM", "value": "≤ 30", "unit": "%"}, {"measurement": "remaining activity at 1 µM", "setting": "[16]; single concentration of 1 μM", "value": "≤ 30", "unit": "%"}, {"measurement": "remaining activity at 1 µM", "setting": "[17]; single concentration of 1 μM", "value": "≤ 30", "unit": "%"}, {"measurement": "remaining activity at 1 µM", "setting": "[18]; single concentration of 1 μM", "value": "≤ 30", "unit": "%"}, {"measurement": "IC50", "setting": "[19]; read-out: ABL1 (T315I) IC50", "value": "> 600", "unit": "nM"}]}]}
